PMC6151660 (Molecules : A Journal of Synthetic Chemistry and Natural …, 2017)
≈ marks a conversion by molar mass, not a printed value. Where two headings read alike, the source gives them in different places.

Assays:
[1] = test system: Mycobacterium tuberculosis H37Rv; assay: microbe, parasite or virus in culture; format: cell-based; settings: for activity at 1 µM / activity at 50 µM / activity at 100 µM: 120 h
[2] = test system: M. tuberculosis H37RvMA pMSP12:GFP; assay: microbe, parasite or virus in culture; format: cell-based; settings: Mycobacterium tuberculosis
[3] = test system: M. tuberculosis H37Rv:pCHERRY3; assay: microbe, parasite or virus in culture; format: cell-based; settings: Mycobacterium tuberculosis
BSA = biological target: T1, BSA (Bos taurus, UniProt P02769); assay: Bovine serum albumin binding assay (fluorescence quenching); settings: BSA 1.00 × 10^−5 mol L^−1, 22 °C, ex 295 nm
T1 construct: purchased Sigma Aldrich (Kempton Park, South Africa)
From the text: The mechanism of the fluorescent quenching of CM14 and CM15 to BSA is described using the Stern-Volmer equation:F0/F = 1 + ksv[Q] = 1 + kq τ0[Q] where F0 and F are the fluorescence intensities before and after the addition of the quencher, respectively; ksv is the dynamic quenching constant; kq is the quenching rate constant; [Q] is the concentration of quencher; τ0 is the average lifetime of the molecule without quencher and its value is considered to be 10^−8 s. The plots show a good linear relationship within the investigated concentrations of CM14 and CM15.
The interaction between coumarin derivatives (CM14 and CM15) and BSA were measured by fluorescence spectroscopy. BSA (≥98%) was obtained from Sigma Aldrich (Kempton Park, South Africa) and dissolved in a Tris–HCl (0.10 mol L^−1, pH = 7.4) buffer to form the BSA solution with a concentration of 1.00 × 10^−5 mol L^−1. A Tris–HCl buffer (0.10 mol L^−1, pH = 7.4) containing 0.10 mol L^−1 NaCl was selected to keep the pH value constant and to maintain the ionic strength of the solution. CM14 and CM15 stock solution (1.00 × 10^−3 mol L^−1) was prepared in MeOH. […] Fluorescence spectra were recorded on a Synergy Mx fluorescence plate reader (BioTek, Winooski, VT, USA). […] Fluorescence spectra were measured in the range of 315–500 nm at the excitation wavelength of 295 nm. […]

[4] = Chinese hamster ovary cell cytotoxicity MTT assay; settings: CHO cells
Method: Cytotoxicity was evaluated on CHO cells utilizing a standard 3-[4,5-dimethylthiazol-2-yl]-2,5-diphenyl tetrazolium bromide (MTT) assay. The MTT is a yellow tetrazolium salt that is reduced to purple formazan in the presence of living cells. This reduction reaction was used to measure growth and chemosensitivity. The test samples were tested in triplicate on one occasion. Cells were seeded in microtiter plates at a density of 10^5 cells/mL and incubated for 24 h prior to exposure. The test samples were prepared to a 20 mg/mL stock solution in 10% methanol or 10% DMSO and were tested as a suspension if not properly dissolved. Test compounds were stored at −20 °C until use, and administered in volumes of 100 µL to the plated cells. Emetine was used as the reference drug in all experiments. […] Plates were developed after 44 h of exposure to the drug by the addition of a solution of MTT. After four hours, further incubation at 37 °C the supernatant was removed from the cells via suction and DMSO was added to each well to dissolve the reduced dye crystals. […] The amount of formazan produced in wells containing untreated cells only and growth medium only represent 100% survival and 0% survival respectively, and the amount in each treatment well was converted to a survival percentage relative to these two extremes. The IC50 values were obtained from full dose-response curves, using a non-linear dose-response curve fitting analysis via GraphPad Prism v.4 software.

[5] = SH-SY5Y cytotoxicity MTT assay; format: cell-based, human; settings: human, SH-SY5Y neuroblastoma cells, MTT, read-out: CC 50% SH-SY5Y (range where 50% cell toxicity will be observed)
Method: (§1) The human neuroblastoma cell line SH-SY5Y was generously donated by our collaborator at the Division of Molecular Biology and Human Biology, Stellenbosch University, Tygerberg, Cape Town. Cells were cultured in monolayer using Dulbecco Modified Eagles Medium (DMEM, Gibco, Life Technologies Ltd. Carlsbad, CA, USA) supplemented with 10% fetal bovine serum (FBS, Gibco, Life Technologies Ltd.) and 1% 100 U/mL penicillin and 100 μg/mL streptomycin (Lonza Group Ltd., Basel, Switzerland). Cells were grown at 37 °C, in a humidified atmosphere at 5% CO2. Media were replaced every two to three days and cells were sub-cultured by splitting with trypsin (Lonza Group Ltd.).
(§2) The standard MTT assay which measures cell metabolic activity was used to determine cytotoxicity of CM14, CM15 and CM9 as described by Mosmann. Briefly, SH-SY5Y cells were plated in flat bottom 96 well plates in growth medium as stated in Section 3.7.1 at a density of 7500 cells/well. Cells were allowed to adhere to the plate surface for 24 h and used media were replaced with fresh media containing test compounds at 10 µM, 50 µM and 100 µM. Vehicle control cells were treated with DMSO (solvent for dissolving test compounds) at a concentration similar to the amount contained in the highest concentration of test compounds. After 48 h, 10 µL of MTT solution (5 mg/mL) was added to each well and incubated for 4 h and the purple formazan formed was solubilized with 100 µL DMSO and plates were read spectrophotometrically to determine absorbance at 570 nm using a BMG Labtech POLARStar Omega multimodal plate reader.

SH-SY5Y cells [6] = assay: SH-SY5Y cytotoxicity MTT assay; format: cell-based, human; settings: 48 h
Method: as §1, §2

electric eel AChE = test system: electric eel AChE; parameters: method as in Joubert et al., 2017 [23]; settings: ref Joubert et al., 2017 [23]; cited from earlier work
[7] = biological target: equine butyrylcholinesterase (BuChE); parameters: method as in Joubert et al., 2017 [23]; settings: ref Joubert et al., 2017 [23]; cited from earlier work
SH-SY5Y cells [8] = assay: MPP+-induced cytotoxicity in SH-SY5Y cells (neuroprotection); settings: 1 µM compound, 1000 μM MPP+ for 48 h, untreated control 100%
[9] = 1 µM compound, day 5, read-out: % M. tuberculosis Growth, Day 5
[10] = 50 µM compound, day 5, read-out: % M. tuberculosis Growth, Day 5
[11] = 100 µM compound, day 5, read-out: % M. tuberculosis Growth, Day 5
[12] = read-out: % M. tuberculosis Growth, Day 5

T1 sequence (P02769 25-607): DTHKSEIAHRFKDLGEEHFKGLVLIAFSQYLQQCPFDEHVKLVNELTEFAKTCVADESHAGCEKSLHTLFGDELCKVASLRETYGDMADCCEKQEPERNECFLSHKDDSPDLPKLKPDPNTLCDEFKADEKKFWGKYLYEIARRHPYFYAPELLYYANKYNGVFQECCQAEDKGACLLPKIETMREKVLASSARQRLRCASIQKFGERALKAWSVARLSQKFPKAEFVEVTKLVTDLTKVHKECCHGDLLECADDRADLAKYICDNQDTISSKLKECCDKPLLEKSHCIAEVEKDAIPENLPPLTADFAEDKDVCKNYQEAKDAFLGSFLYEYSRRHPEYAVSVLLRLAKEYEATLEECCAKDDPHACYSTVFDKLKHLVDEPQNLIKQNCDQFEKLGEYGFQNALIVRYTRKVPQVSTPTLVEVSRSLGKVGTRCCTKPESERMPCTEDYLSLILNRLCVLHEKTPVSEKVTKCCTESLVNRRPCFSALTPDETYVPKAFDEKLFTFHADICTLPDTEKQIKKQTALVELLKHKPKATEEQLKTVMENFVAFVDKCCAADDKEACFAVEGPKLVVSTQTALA

Cc1c(C#N)c(=O)oc2cc(OCCN3CCN(Cc4ccc(Br)cc4)CC3)ccc12 [CM14]
activity at 1 µM [1, 9]: 99.5% | activity at 50 µM [1, 10]: 4.4% | activity at 100 µM [1, 11]: 4.44% | MIC90 [2]: 16.7 µM (≈ 8.06 µg/mL) | MIC99 [2]: 28 µM (≈ 13.5 µg/mL) | MIC90 [3]: 45.2 µM (≈ 21.8 µg/mL) | MIC99 [3]: 54.5 µM (≈ 26.3 µg/mL) | ksv (dynamic quenching constant) (BSA): 380000 mol/L | CC50 at 44 h [4]: 41.2 µM | CC50 at 48 h [5]: 50 to 100 µM | effect on viability of SH-SY5Y cells (SH-SY5Y cells [6]; 10 µM): did not significantly affect | effect on viability of SH-SY5Y cells (SH-SY5Y cells [6]; 50 µM and 100 µM): significantly (p < 0.001) affected | IC50 (electric eel AChE): 38.5 µM | IC50 [7]: 13.3 µM | cell survival restored after MPP+ exposure (SH-SY5Y cells [8]): 101.2 ± 6.00%

Cc1c(Cl)c(=O)oc2cc(OCc3ccccc3)ccc12 [CM18]
activity at 1 µM [1, 9]: 97.3% | activity at 50 µM [1, 10]: 87.9% | activity at 100 µM [1, 11]: 75.5%

O=c1cc(C(F)(F)F)c2ccc(OCCN3CCN(Cc4ccc(Br)cc4)CC3)cc2o1 [CM15]
activity at 1 µM [1, 9]: 107% | activity at 50 µM [1, 10]: 6.68% | activity at 100 µM [1, 11]: 4.88% | MIC90 [2]: 3.2 µM (≈ 1.64 µg/mL) | MIC99 [2]: 8.31 µM (≈ 4.25 µg/mL) | MIC90 [3]: 43.8 µM (≈ 22.4 µg/mL) | MIC99 [3]: 57.2 µM (≈ 29.2 µg/mL) | ksv (dynamic quenching constant) (BSA): 488000 mol/L | CC50 at 44 h [4]: 26.3 µM | CC50 at 48 h [5]: 10 to 50 µM | effect on viability of SH-SY5Y cells (SH-SY5Y cells [6]; 10 µM): did not significantly affect | effect on viability of SH-SY5Y cells (SH-SY5Y cells [6]; 50 µM and 100 µM): significantly (p < 0.001) affected | IC50 (electric eel AChE): > 100 µM | IC50 [7]: > 100 µM | cell survival restored after MPP+ exposure (SH-SY5Y cells [8]): 81.05 ± 6.83%

Cc1c(C#N)c(=O)oc2cc(OCc3ccccc3)ccc12 [CM19]
activity at 1 µM [1, 9]: 98.3% | activity at 50 µM [1, 10]: 66.9% | activity at 100 µM [1, 11]: 55.4%

O=c1ccc2ccc(OCc3ccccc3)cc2o1 [CM16]
activity at 1 µM [1, 12]: 97.5% | activity at 50 µM [1, 12]: 72.7% | activity at 100 µM [1, 12]: 50.7%

O=c1ccc2ccc(OCCN3CCN(Cc4ccc(Br)cc4)CC3)cc2o1 [CM11]
activity at 1 µM [1, 9]: 95.2% | activity at 50 µM [1, 10]: 7.05% | activity at 100 µM [1, 11]: 4.46%

CO[C@H]1/C=C/O[C@@]2(C)Oc3c(C)c(O)c4c(O)c(c(/C=N/N5CCN(C)CC5)c(O)c4c3C2=O)NC(=O)/C(C)=C\C=C\[C@H](C)[C@H](O)[C@@H](C)[C@@H](O)[C@@H](C)[C@H](OC(C)=O)[C@@H]1C [RIF, rifampicin, reference compound]
inhibition at 6 µM ([1]; read-out: inhibition of bacterial growth): 100% | MIC [2]: 0.0274 µM (≈ 0.0225 µg/mL)

Cc1cc(=O)oc2cc(OCc3ccccc3)ccc12 [CM17]
activity at 1 µM [1, 12]: 97.6% | activity at 50 µM [1, 12]: 28.6% | activity at 100 µM [1, 12]: 19.8%

Cc1c(C#N)c(=O)oc2cc(OCc3ccc(Br)cc3)ccc12 [CM4]
activity at 1 µM [1, 9]: 95.3% | activity at 50 µM [1, 10]: 44.6% | activity at 100 µM [1, 11]: 33.5%

Cc1c(Cl)c(=O)oc2cc(OCc3ccc(Br)cc3)ccc12 [CM3]
activity at 1 µM [1, 9]: 97.8% | activity at 50 µM [1, 10]: 96.1% | activity at 100 µM [1, 11]: 92.9%

O=c1ccc2ccc(OCc3ccc(Br)cc3)cc2o1 [CM1]
activity at 1 µM [1, 9]: 96.3% | activity at 50 µM [1, 10]: 79.8% | activity at 100 µM [1, 11]: 63.6%
